Patent US11091501B2, “Heterocyclic compounds as RSV inhibitors” (Enanta Pharmaceuticals, Inc., priority 2017, dated 2021)
pEC50: −log10 of the molar value.

Test system: Human RSV-A (“Long” strain)
Test: RSV in vitro cytoprotection assay (CPE, ATPlite) in HEp-2 cells
Format: cell-based
Conditions: human respiratory syncytial virus, 96 h; HEp-2 cells, 4-day incubation, ATPlite readout; read-out: Human RSV-A (“Long” strain) EC50
Text: RSV is a single stranded negative sense RNA virus that causes respiratory tract infections which can be dangerous to infants, the elderly, and immunosuppressed individuals. Currently there is no vaccine, and therapeutic options are both costly and of limited effectiveness. These approved treatments are Ribavirin, and Palivizumab/Synagis (a monoclonal antibody). RSV has two genotypes, A and B, which differ primarily in the structure of the virus' surface “G” attachment protein. Our current primary screen focuses on RSV-A and uses an in vitro cytoprotection assay where compounds are added in 2-fold dilutions to cells which are then subjected to fully replicative viral particles. Cell viability is measured several days later along with separate measurements of compound cytotoxicity. This report focuses on the results of our most recent screening of compounds.
HEp-2 cells, (originally derived from tumors grown in irradiated-cortisonised weanling rats that had been injected with epidermoid carcinoma tissue from a person's larynx, but later found to be indistinguishable from HeLa cells by PCR DNA analysis), were used for the culturing of genotype A, “Long” strain RSV. Flasks were inoculated with RSV and viral stocks were collected once cytopathic effect (CPE) was greater than 90%. Viral stocks in 25% sucrose media were snap frozen using liquid nitrogen to increase viral stability. Viral stock titers were quantified by tissue culture infectious dose 50% (TCID50) using 8,000 cells per well and 3-fold viral dilutions across a 96-well plate, cultured for 4 days.
Following extensive parameter testing, the final assay is run as follows: HEp-2 cells are seeded into the inner 60 wells of a 96-well plate at 8,000 cells per well in a volume of 50 μL using Growth Media (DMEM without phenol red, 1% L-Glut, 1% Penn/Strep, 1% nonessential amino acids, 10% FBS). 2-Fold serial dilutions of control and test compounds are added to the wells in duplicate in a total volume of 25 μL. Viral stock is then added to the wells in a volume of […] the total volume of each well to 100 μL. Each 96-well plate has a control column of 6 wells with cells and virus but no compound (negative control, max CPE), a column with cells but no compound or virus (positive control, minimum CPE), and a column with no cells or virus or compound (background plate/reagent control). The control wells with cells but no virus are given an additional 25 uL of growth media containing an equal quantity of sucrose as those wells receiving the viral stock in order to keep consistent in media and volume conditions. The outer wells of the plate are filled with 125 μL of growth media to act as a thermal and evaporative moat around the test wells. Following a 4-day incubation period, the plates are read using ATPlite (50 uL added per well), which quantifies the amount of ATP (a measure of cell health) present in each well. Assay plates are read using the Envision luminometer. In parallel, cytotoxicity is examined on an additional 96-well plate treated in an identical manner, but substituting the 25 μL of viral stock for 25 μL of growth media. […] EC50 ranges are as follows: A<0.01 μM; B 0.01-0.05 μM; C>0.05 μM.

Q: How did the pEC50 turn out when `O=C(Nc1ccc(C(=O)N2CCc3cc(-c4nc5cccc(Cl)c5[nH]4)sc3-c3ccc(F)cc32)cc1)c1cc(F)cnc1N1CC2(CCOCC2)C1` [Example 44] was run?
A: 7.30 to 8.00

Q: With `O=C(Nc1ccc(C(=O)N2CCc3cc(-c4ccn[nH]4)sc3-c3ccc(F)cc32)cc1)c1cc(F)cnc1N1CC2(CCOCC2)C1` [Example 45] as the compound, how does the pEC50 read?
A: 7.30 to 8.00

Q: `Cc1cnc(N2CC3(CCOCC3)C2)c(C(=O)Nc2ccc(C(=O)N3CCc4cc(-c5ccn[nH]5)sc4-c4ccc(F)cc43)cc2)c1` [Example 46] was tested. Which pEC50 did it give?
A: 7.30 to 8.00

Q: `O=C(Nc1c(F)cccc1F)c1cc2c(s1)-c1ccc(F)cc1N(C(=O)c1ccc(NC(=O)c3cccnc3N3CC4CCCC4C3)cc1)CC2` (stereo not drawn) [Example 47] was tested. Which pEC50 did it give?
A: 7.30 to 8.00

Q: `O=C(Nc1c(F)cccc1F)c1cc2c(s1)-c1ccc(F)cc1N(C(=O)c1ccc(NC(=O)c3cccnc3N3C[C@@H]4C[C@H]3CO4)cc1)CC2` [Example 48] was tested. Which pEC50 did it give?
A: 7.30 to 8.00

Q: With `CC1(C)CCN(c2ncccc2C(=O)Nc2ccc(C(=O)N3CCc4cc(C(=O)Nc5c(F)cccc5F)sc4-c4ccc(F)cc43)cc2)CCS1(=O)=O` [Example 49] as the compound, how does the pEC50 read?
A: < 7.30

Q: With `O=C(Nc1c(F)cccc1F)c1cc2c(s1)-c1ccc(F)cc1N(C(=O)c1ccc(NC(=O)c3cccnc3N3CC4CCC(C3)O4)cc1)CC2` [Example 50] as the compound, how does the pEC50 read?
A: 7.30 to 8.00

Q: With `O=C(Nc1c(F)cccc1F)c1cc2c(s1)-c1ccc(F)cc1N(C(=O)c1ccc(NC(=O)c3cccnc3N3CCCOCC3)cc1)CC2` [Example 51] as the compound, how does the pEC50 read?
A: < 7.30

Q: With `O=C(Nc1c(F)cccc1F)c1cc2c(s1)-c1ccc(F)cc1N(C(=O)c1ccc(NC(=O)c3cccnc3N3CCCC(F)(F)CC3)cc1)CC2` [Example 52] as the compound, how does the pEC50 read?
A: < 7.30

Q: With `O=C(Nc1c(F)cccc1F)c1cc2c(s1)-c1ccc(F)cc1N(C(=O)c1ccc(NC(=O)c3cccnc3N3CCOc4ccccc4C3)cc1)CC2` [Example 53] as the compound, how does the pEC50 read?
A: < 7.30

Q: `CCOCCNc1ncccc1C(=O)Nc1ccc(C(=O)N2CCc3cc(C(=O)Nc4c(F)cccc4F)sc3-c3ccc(F)cc32)cc1` [Example 54] was tested. Which pEC50 did it give?
A: < 7.30

Q: With `CCOCCN(C)c1ncccc1C(=O)Nc1ccc(C(=O)N2CCc3cc(C(=O)Nc4c(F)cccc4F)sc3-c3ccc(F)cc32)cc1` [Example 55] as the compound, how does the pEC50 read?
A: < 7.30

Q: `Cc1cc(CNc2ncccc2C(=O)Nc2ccc(C(=O)N3CCc4cc(C(=O)Nc5c(F)cccc5F)sc4-c4ccc(F)cc43)cc2)on1` [Example 56] was tested. Which pEC50 did it give?
A: < 7.30

Q: With `CCS(=O)(=O)CCN(C)c1ncccc1C(=O)Nc1ccc(C(=O)N2CCc3cc(C(=O)Nc4c(F)cccc4F)sc3-c3ccc(F)cc32)cc1` [Example 57] as the compound, how does the pEC50 read?
A: < 7.30

Q: With `CC1(CNc2ncccc2C(=O)Nc2ccc(C(=O)N3CCc4cc(C(=O)Nc5c(F)cccc5F)sc4-c4ccc(F)cc43)cc2)CCCO1` (stereo not drawn) [Example 58] as the compound, how does the pEC50 read?
A: < 7.30

Q: `CCS(=O)(=O)CCNc1ncccc1C(=O)Nc1ccc(C(=O)N2CCc3cc(C(=O)Nc4c(F)cccc4F)sc3-c3ccc(F)cc32)cc1` [Example 59] was tested. Which pEC50 did it give?
A: < 7.30

Q: `O=C(Nc1c(F)cccc1F)c1cc2c(s1)-c1ccc(F)cc1N(C(=O)c1ccc(NC(=O)c3cccnc3C3=CCOCC3)cc1)CC2` [Example 60] was tested. Which pEC50 did it give?
A: < 7.30

Q: `O=C(Nc1c(F)cccc1F)c1cc2c(s1)-c1ccc(F)cc1N(C(=O)c1ccc(NC(=O)c3cccnc3C3CCOCC3)cc1)CC2` [Example 61] was tested. Which pEC50 did it give?
A: 7.30 to 8.00

Q: With `O=C(Nc1c(F)cccc1F)c1cc2c(s1)-c1ccc(F)cc1N(C(=O)c1ccc(NC(=O)c3cccnc3-c3ccc(N4CCOCC4)cc3)cc1)CC2` [Example 62] as the compound, how does the pEC50 read?
A: < 7.30

Q: How did the pEC50 turn out when `O=C(Nc1c(F)cccc1F)c1cc2c(s1)-c1ccc(F)cc1N(C(=O)c1ccc(NC(=O)c3cccnc3-c3ccncc3)cc1)CC2` [Example 63] was run?
A: < 7.30

Q: `O=C(Nc1c(F)cccc1F)c1cc2c(s1)-c1ccc(F)cc1N(C(=O)c1ccc(NC(=O)c3cccnc3-c3c[nH]c4ccncc34)cc1)CC2` [Example 64] was tested. Which pEC50 did it give?
A: < 7.30

Q: How did the pEC50 turn out when `O=C(Nc1c(F)cccc1F)c1cc2c(s1)-c1ccc(F)cc1N(C(=O)c1ccc(NC(=O)c3cc4c(nc3N3CC5(CCOCC5)C3)CCC4)cc1)CC2` [Example 65] was run?
A: > 8.00

Q: `O=C(Nc1c(F)cc(F)cc1Cl)c1cc2c(s1)-c1ccc(F)cc1N(C(=O)c1ccc(NC(=O)c3cc4c(nc3N3CC5(CCOCC5)C3)CCC4)cc1)CC2` [Example 66] was tested. Which pEC50 did it give?
A: > 8.00

Q: How did the pEC50 turn out when `O=C(Nc1c(F)cc(F)cc1F)c1cc2c(s1)-c1ccc(F)cc1N(C(=O)c1ccc(NC(=O)c3cc4c(nc3N3CC5(CCOCC5)C3)CCC4)cc1)CC2` [Example 67] was run?
A: > 8.00

Q: With `O=C(Nc1ccc(C(=O)N2CCc3cc(-c4nc5ccccc5[nH]4)sc3-c3ccc(F)cc32)cc1)c1cc2c(nc1N1CC3(CCOCC3)C1)CCC2` [Example 68] as the compound, how does the pEC50 read?
A: 7.30 to 8.00

Q: With `O=C(Nc1c(F)cccc1F)c1cc2c(s1)-c1c(ccc(F)c1F)N(C(=O)c1ccc(NC(=O)c3cccnc3N3CC4(CCOCC4)C3)cc1)CC2` [Example 69] as the compound, how does the pEC50 read?
A: 7.30 to 8.00

Q: How did the pEC50 turn out when `O=C(Nc1ccc(C(=O)N2CCc3cc(-c4nc5ccccc5[nH]4)sc3-c3c2ccc(F)c3F)cc1)c1cccnc1N1CC2(CCOCC2)C1` [Example 70] was run?
A: 7.30 to 8.00

Q: How did the pEC50 turn out when `O=C(Nc1c(F)cc(F)cc1F)c1cc2c(s1)-c1cc(F)c(F)cc1N(C(=O)c1ccc(NC(=O)c3cc(F)cnc3N3CC4(CCOCC4)C3)cc1)CC2` [Example 71] was run?
A: 7.30 to 8.00

Q: How did the pEC50 turn out when `Cc1cccc(F)c1NC(=O)c1cc2c(s1)-c1cc(F)c(F)cc1N(C(=O)c1ccc(NC(=O)c3cc(F)cnc3N3CC4(CCOCC4)C3)cc1)CC2` [Example 72] was run?
A: 7.30 to 8.00

Q: How did the pEC50 turn out when `O=C(Nc1c(F)cccc1F)c1cc2c(s1)-c1cc(F)c(F)cc1N(C(=O)c1ccc(NC(=O)c3cc(F)cnc3N3CC4(CCOCC4)C3)cc1)CC2` [Example 73] was run?
A: 7.30 to 8.00

Q: `O=C(Nc1c(F)cccc1Cl)c1cc2c(s1)-c1cc(F)c(F)cc1N(C(=O)c1ccc(NC(=O)c3cc(F)cnc3N3CC4(CCOCC4)C3)cc1)CC2` [Example 74] was tested. Which pEC50 did it give?
A: 7.30 to 8.00

Q: With `O=C(Nc1c(F)cccc1C(F)(F)F)c1cc2c(s1)-c1cc(F)c(F)cc1N(C(=O)c1ccc(NC(=O)c3cc(F)cnc3N3CC4(CCOCC4)C3)cc1)CC2` [Example 75] as the compound, how does the pEC50 read?
A: 7.30 to 8.00

Q: `O=C(Nc1c(F)cccc1F)c1cc2c(s1)-c1cc(F)c(F)cc1N(C(=O)c1ccc(NC(=O)c3cccnc3N3CC4(CCOCC4)C3)cc1)CC2` [Example 76] was tested. Which pEC50 did it give?
A: > 8.00

Q: `O=C(Nc1c(F)cccc1F)c1cc2c(s1)-c1c(cc(F)c(F)c1F)N(C(=O)c1ccc(NC(=O)c3cccnc3N3CC4(CCOCC4)C3)cc1)CC2` [Example 78] was tested. Which pEC50 did it give?
A: > 8.00

Q: With `O=C(Nc1c(F)cc(F)cc1F)c1cc2c(s1)-c1c(cc(F)c(F)c1F)N(C(=O)c1ccc(NC(=O)c3cccnc3N3CC4(CCOCC4)C3)cc1)CC2` [Example 79] as the compound, how does the pEC50 read?
A: 7.30 to 8.00

Q: With `O=C(Nc1c(F)cccc1Cl)c1cc2c(s1)-c1c(cc(F)c(F)c1F)N(C(=O)c1ccc(NC(=O)c3cccnc3N3CC4(CCOCC4)C3)cc1)CC2` [Example 80] as the compound, how does the pEC50 read?
A: 7.30 to 8.00

Q: `O=C(Nc1c(F)cc(F)cc1Cl)c1cc2c(s1)-c1c(cc(F)c(F)c1F)N(C(=O)c1ccc(NC(=O)c3cccnc3N3CC4(CCOCC4)C3)cc1)CC2` [Example 81] was tested. Which pEC50 did it give?
A: 7.30 to 8.00

Q: With `O=C(Nc1ccc(C(=O)N2CCc3cc(-c4nc5ccccc5[nH]4)sc3-c3ccc(Cl)cc32)cc1)c1cccnc1N1CC2(CCOCC2)C1` [Example 82] as the compound, how does the pEC50 read?
A: 7.30 to 8.00

Q: How did the pEC50 turn out when `O=C(Nc1c(F)cccc1F)c1cc2c(s1)-c1ccc(Cl)cc1N(C(=O)c1ccc(NC(=O)c3cccnc3N3CC4(CCOCC4)C3)cc1)CC2` [Example 83] was run?
A: > 8.00

Q: How did the pEC50 turn out when `O=C(Nc1c(F)cc(F)cc1Cl)c1cc2c(s1)-c1ccc(Cl)cc1N(C(=O)c1ccc(NC(=O)c3cccnc3N3CC4(CCOCC4)C3)cc1)CC2` [Example 84] was run?
A: 7.30 to 8.00

Q: How did the pEC50 turn out when `Cc1cccc(F)c1NC(=O)c1cc2c(s1)-c1ccc(C(F)(F)F)cc1N(C(=O)c1ccc(NC(=O)c3cccnc3N3CC4(CCOCC4)C3)cc1)CC2` [Example 85] was run?
A: < 7.30

Q: With `O=C(Nc1ccc(C(=O)N2CCc3cc(-c4nc5ccccc5[nH]4)sc3-c3ccc(C(F)(F)F)cc32)cc1)c1cccnc1N1CC2(CCOCC2)C1` [Example 86] as the compound, how does the pEC50 read?
A: < 7.30

Q: `O=C(Nc1c(F)cccc1F)c1cc2c(s1)-c1cc(C(F)(F)F)ccc1N(C(=O)c1ccc(NC(=O)c3cccnc3N3CC4(CCOCC4)C3)cc1)CC2` [Example 87] was tested. Which pEC50 did it give?
A: 7.30 to 8.00

Q: `O=C(Nc1ccc(C(=O)N2CCc3c(sc(C(=O)Nc4c(F)cccc4F)c3F)-c3ccccc32)cc1)c1cccnc1N1CC2(CCOCC2)C1` [Example 88] was tested. Which pEC50 did it give?
A: > 8.00

Q: With `O=C(Nc1ccc(C(=O)N2CCc3c(sc(C(=O)Nc4c(F)cc(F)cc4F)c3F)-c3ccccc32)cc1)c1cccnc1N1CC2(CCOCC2)C1` [Example 89] as the compound, how does the pEC50 read?
A: > 8.00
